Literature values as cited in US6703045B2, “Composition and method for maintaining blood glucose level” (Council of Scientific & Industrial Research, priority 2001, dated 2004).

[1] = approximate incidence in patients

## Cc1cnc(C(=O)NCCc2ccc(S(=O)(=O)NC(=O)NC3CCCCC3)cc2)cn1 [Glipizide, 1-cyclohexyl-3-[[p-[2-(5-methylpyrazinecarboxamido)ethyl]phenyl]sulfonyl] urea]
[1]
  incidence of constipation and gastralgia: one in one hundred
  incidence of nausea and diarrhea: one in seventy
patients
  incidence of dizziness, drowsiness, and headache (each): about one in fifty
